Data taken from publication PMC11474028, “Lipopeptide antibiotics disrupt interactions of undecaprenyl phosphate with UptA” (Proceedings of the National Academy of Sciences of the …, 2024).

Key:
[1] = molecular target: T1, UptA (Bacillus subtilis, UniProt O31823); assay: Native MS of antibiotic binding to UptA; settings: 2.5 µM UptA, 10 µM C55-P, antibiotic up to 100 µM (polymyxins 100 µM), 0.05% LDAO, 200 mM ammonium acetate, 75 V
Protocol: We next investigate how UptA and its complex with C55-P interact with a range of cell-wall targeting antibiotics including the lipopeptides daptomycin and amphomycin. […] We investigated whether daptomycin affects C55-P binding to UptA by recording spectra for solutions containing 2.5 µM UptA, 10 µM C55-P, and different concentrations of daptomycin.
(§1) Amphomycin and derivatives are known to kill bacteria by forming complexes with free C55-P ([46]), however, whether or not this involves a direct interaction with a protein cellular target is not known. We therefore investigated how amphomycin affects the UptA:C55-P complex. We recorded spectra for solutions containing 2.5 µM UptA, 10 µM C55-P and then equilibrated aliquots with increasing concentrations of amphomycin.
The amphiphilic nature of daptomycin and amphomycin raises the possibility that these lipopeptide antibiotics may promiscuously bind to UptA in a nonspecific manner. We probe this possibility by recording spectra for UptA:C55-P solutions in the presence of 100 µM polymyxin B and 100 µM polymyxin E. These polymyxins are membrane-disrupting lipopeptides that target the outer membrane lipopolysaccharides in Gram-negative bacteria ([47]) but without a known affinity for C55-P or UptA.
To this end, we prepared UptA:C55-P mixtures and then equilibrated aliquots with bacitracin and vancomycin.
(§2) Detailed experimental procedures are provided in SI Appendix. Briefly, UptA (wild type and mutants) was expressed in E. coli C43(DE3) cells (Lucigen) with GFP fusion on the C-terminus and solubilized from the membrane fraction by n-dodecyl-β-D-maltopyranoside (DDM). After purification by affinity chromatography, the GFP was cleaved by TEV protease and removed, and UptA was further purified by size-exclusion chromatography in a buffer containing 20 mM Tris-HCl (pH 8.0), 200 mM NaCl, 0.02% DDM. Before measurements, proteins were buffer-exchanged into 0.05% LDAO, 200 mM ammonium acetate at the desired pH using a centrifugal buffer exchange device (Micro Bio-Spin 6, Bio-Rad). Stock solutions of lipids were prepared from chloroform/methanol solution by evaporating aliquots of known volume in a SpeedVac. After drying, the lipid films were weighed and resuspended to a final concentration of 0.5 mM in 200 mM ammonium acetate and 0.05% LDAO by vertexing. Stock solutions of 0.5 mM amphomycin, aspartocin D, daptomycin, polymyxin B, polymyxin E, and bacitracin were made in the same buffer. All experiments were repeated three times from newly prepared stock solutions. Native mass spectrometry was performed on a Q-Exactive hybrid quadrupole-Orbitrap mass spectrometer (Thermo Fisher Scientific, Bremen, Germany), and lipid identification was performed on an Orbitrap Eclipse Tribrid mass spectrometer (Thermo). […]

[2] = tested on: UptA:C55-P complex; assay: Native MS of UptA:C55-P complex in the presence of antibiotics; assay type: binding, Bacillus subtilis; settings: 2.5 µM UptA, 10 µM C55-P, 0 to 100 µM antibiotic, 75 V; mean of three independent replicates
Protocol: as §1
(A) Mass spectra (6+ charge state) for solutions containing 2.5 µM UptA and 10 µM C55-P incubated with 0 to 100 µM amphomycin. (B) Relative intensity of C55-P bound to UptA in the presence of amphomycin and daptomycin. The bar represents the mean of three independent replicates shown as data points and error bars are SD. […] (C) Fraction of C55-P bound to UptA in the presence of cell wall targeting antibiotics. Each sample contains 2.5 µM UptA, 10 µM C55-P and 100 µM of indicated antibiotic, and spectra were acquired using the same instrument settings and collisional activation of 75 V. The bar represents the mean of three independent replicates shown as data points, and the error bar represents SD. […]
as §2

[3] = molecular target: T1, UptA; assay: biochemical; assay type: binding; settings: for binding to UptA by lipid chain length (in words): 4 µM UptA, 10-fold molar excess (40 µM) of lipid, pH 8.0, 200 mM ammonium acetate, 0.05% LDAO
Protocol: We explored the binding affinity of UptA toward C55-P by recording mass spectra for solutions containing 2.5 µM UptA and 0 to 40 µM C55-P in 200 mM ammonium acetate, 0.05% LDAO at pH 8.0. […] Further increase in the concentration of C55-P enhanced the intensity of the UptA:C55-P complex, together with the emergence of additional binding events (Fig. 2A). We deconvoluted the spectra ([34]) to extract mean relative intensities of bound and unbound forms of UptA in the spectral series.
To investigate the binding selectivity of UptA for monophosphate (C55-P) versus diphosphate (C55-PP) forms of the lipid carrier, we performed comparative binding assays. First, we recorded mass spectra for a mixture of UptA with increasing concentrations of C55-PP (SI Appendix, Fig. S3). […] We then fit the data to Hill equation to obtain an apparent Kd for this system.
UptA is a member of the DedA family of transporters whose cellular functions are potentially driven by proton-motive force and provide conditional fitness to bacteria under alkaline conditions ([25], [26], [36]). […] To this end, we equilibrated C55-P with UptA at a protein/ligand molar ratio of 1:4 in a buffer of the same composition but at pH 8.0 and 5.0. […] As a negative control, we tested for pH sensitivity of C55-P binding to MraY, the latter being the downstream enzyme in the peptidoglycan pathway that couples UM5 to C55-P. To this end, we equilibrated MraY and C55-P at a molar ratio of 1:4 in a buffer of pH 8.0 and pH 5.0.
Next, we investigated the chain length selectivity of UptA by testing its interaction with geranylgeranyl phosphate (C20-P), hexaprenyl phosphate (C30-P), and C55-P; the latter representing the native form of the lipid carrier in the model organisms B. subtilis and E. coli ([39]). For this experiment, we incubated 4 µM UptA with a 10-fold molar excess of C20-P, C30-P, and C55-P at pH 8.0 and recorded spectra under the same conditions. […] The length and stereochemistry of lipid tails can influence their interactions with membrane proteins ([40]).
Detailed experimental procedures are provided in SI Appendix. Briefly, UptA (wild type and mutants) was expressed in E. coli C43(DE3) cells (Lucigen) with GFP fusion on the C-terminus and solubilized from the membrane fraction by n-dodecyl-β-D-maltopyranoside (DDM). After purification by affinity chromatography, the GFP was cleaved by TEV protease and removed, and UptA was further purified by size-exclusion chromatography in a buffer containing 20 mM Tris-HCl (pH 8.0), 200 mM NaCl, 0.02% DDM. Before measurements, proteins were buffer-exchanged into 0.05% LDAO, 200 mM ammonium acetate at the desired pH using a centrifugal buffer exchange device (Micro Bio-Spin 6, Bio-Rad). Stock solutions of lipids were prepared from chloroform/methanol solution by evaporating aliquots of known volume in a SpeedVac. After drying, the lipid films were weighed and resuspended to a final concentration of 0.5 mM in 200 mM ammonium acetate and 0.05% LDAO by vertexing.

[4] = molecular target: T1, UptA; assay: Native MS of phospholipid binding to UptA; settings: for UptA-lipid complexes formed (stoichiometry, in words): 4 µM UptA with 10 µM lipid, native MS
Excerpt: Proteins belonging to the DedA family are a widespread family of transporters and are proposed to flip diverse lipids, including carrier lipids and membrane phospholipids. We therefore probed the interaction of UptA with membrane phospholipids to understand whether the latter could modulate its function. For this purpose, we selected anionic phosphatidylglycerols (PG) and zwitterionic phosphatidylethanolamines (PE), representing the major classes of phospholipid headgroups found in B. subtilis ([41], [42]). We recorded mass spectra of solutions containing 4 µM UptA incubated with 10 µM a15:0-i15:0 PE and 10 µM a15:0-i15:0 PG (a15:0, anteiso-pentadecanoic acid; i15:0, iso-pentadecanoic acid). The fatty acid composition of these lipids closely mimics those of native B. subtilis lipids (see below). The resulting spectra display peaks corresponding to UptA in apo and lipid-bound forms in both cases (Fig. 4 A and B). […] We therefore hypothesize that UptA interacts more favorably with PG than with PE.
To verify the lipid binding preference of UptA with more native-like lipids, we prepared lipid extracts from B. subtilis membranes (Materials and Methods). We then incubate an aliquot of the resulting crude lipids (SI Appendix, Fig. S8) with UptA. The spectra yielded peaks assigned to UptA in complex with cardiolipins (~1,326 Da) and a range of phospholipids, predominantly 694 Da, 721 Da, 748 Da, and 776 Da species (Fig. 4 D and E). To identify these lipids, we performed tandem MS/MS, isolating the lipid species and subjecting it to collisional activation. […] The fatty acid fragments are mixed populations, predominantly 15:0-15:0, 15:0-17:0, 16:0-16:0, and 16:0-18:1 (SI Appendix, Fig. S9) which are the typical fatty acids from B. subtilis membrane phospholipids ([42]). We therefore conclude that UptA interacts more favorably with the anionic cardiolipins and phosphatidylglycerols than with the zwitterionic phosphatidylethanolamines in the membrane lipid extracts.
as §2
Lipid extracts from B. Subtilis
B. subtilis strain 168 (ATCC 23857) was cultivated in […] LB media at 37 °C until OD600 nm 1.2 under aurobic conditions. Cells were harvested by centrifugation at 4,000 g for 20 minutes and resuspended in 20 mM Tris-HCl (pH 8.0), 150 mM NaCl. Cells were lysed by 5-6 passes through a microfluidizer at 20,000 psi. The lysates were clarified by centrifugation at 4,000 g for 10 minutes, and the totoal membrane was pelleted at 120,000 g for 1 h. The membrane pellet was ressupended […]

T1 sequence (O31823 whole entry): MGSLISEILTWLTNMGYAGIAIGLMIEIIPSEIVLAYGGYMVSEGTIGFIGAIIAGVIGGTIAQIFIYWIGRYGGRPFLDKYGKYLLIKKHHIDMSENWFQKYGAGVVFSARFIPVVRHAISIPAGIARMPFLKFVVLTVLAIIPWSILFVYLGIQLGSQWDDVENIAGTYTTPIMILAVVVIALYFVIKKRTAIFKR

polymyxin E
binding of antibiotic to UptA (in words) [1]: do not bind to UptA
effect of antibiotic on UptA:C55-P complex (in words) [2]: attenuation of C55-P binding to UptA (SI Appendix, Fig. S10), but this effect is less significant compared to the impact of amphomycin analogs

CC(C)=CCCC(C)=CCCC(C)=CCCC(C)=CCCC(C)=CCCC(C)=CCOP(=O)(O)O [C30-P, hexaprenyl phosphate]
binding to UptA by lipid chain length (in words) [3]: higher binding affinity of UptA to C30-P compared to C20-P

vancomycin
binding of antibiotic to UptA (in words) [1]: bind to UptA but with very low intensities
effect of antibiotic on UptA:C55-P complex (in words) [2]: no observable impact on C55-P binding

CC(C)=CCC/C(C)=C/CC/C(C)=C/CC/C(C)=C/COP(=O)(O)O [C20-P, geranylgeranyl phosphate]
binding to UptA by lipid chain length (in words) [3]: low-intensity peaks corresponding by mass to UptA:C20-P complexes, leaving most of the protein in the apo form

polymyxin B
binding of antibiotic to UptA (in words) [1]: do not bind to UptA
effect of antibiotic on UptA:C55-P complex (in words) [2]: attenuation of C55-P binding to UptA (SI Appendix, Fig. S10), but this effect is less significant compared to the impact of amphomycin analogs

CC[C@@H](C)CCCCCCCCCCC(=O)OC[C@H](COP(=O)([O-])OCC(O)CO)OC(=O)CCCCCCCCCCCC(C)C.[Na+] (stereo partly shown) [a15:0-i15:0 PG]
mean relative intensity of UptA in complex with phospholipid, comparison (in words) ([4]; 4 µM UptA with 10 µM lipid (stated for a15:0-i15:0 lipids), mean of three independent replicates): higher than for a15:0-i15:0 PE
UptA-lipid complexes formed (stoichiometry, in words) [4]: 1:1 and 1:2 protein-lipid complexes

CCC(C)CCCCCCCCCCC(=O)OC[C@H](COP(=O)(O)OCCN)OC(=O)CCCCCCCCCCCC(C)C (stereo partly shown) [a15:0-i15:0 PE]
UptA-lipid complexes formed (stoichiometry, in words) [4]: only a 1:1 complex

CC(C)=CCC/C(C)=C/CC/C(C)=C/CC/C(C)=C\CC/C(C)=C\CC/C(C)=C\CC/C(C)=C\CC/C(C)=C\CC/C(C)=C\CC/C(C)=C\CC/C(C)=C\COP(=O)(O)OP(=O)(O)O [C55-PP, undecaprenyl diphosphate]
selectivity of UptA for C55-P versus C55-PP (in words) ([3]; native MS, 200 mM ammonium acetate, pH 8, 0.05% LDAO): UptA bind C55-PP but with lesser intensities compared to C55-P
Kd ([3]; read-out: apparent Kd for the binding of one ligand molecule (1×) to UptA): 15.3 µM
